Measurements: paper PMC9241057, “Ru(II)arene(N^N bpy/phen)-based RAPTA complexes for in vitro anti-tumour activity in human glioblastoma cancer cell lines and in vivo toxicity studies in a zebrafish model” (RSC Advances, 2022)

Experiments:
Conductivity measurement = assay type: physicochemical; conditions: 3 x 10^-5 M; for Conductivity (ΛM) 10% aq DMSO: in 10% aq DMSO; for Conductivity (ΛM) DMSO: in DMSO
Excerpt: concentrations gradually.
Origin Lab, version 8.5 was
equation (v) given below: […]
Conductivity measurement 7
complexes with DMSO and aqueous DMSO.
followed the previously described procedure. An orbital shaker was used to shake a known
Different ratios (0.5:1, 1:1,
saturated n-octanol to get the partition coefficient. The absorbance of aliquots of the aqueous

T98G cell line = experiment: Time-dependent ROS generation study, DCFH-DA staining; assay type: cell-based, human; conditions: 20 μM, 2, 6 and 10 h
Procedure: The oxidative stress was measured by the level of intracellular ROS via 2′,7′-dichlorodihydrofluorescein diacetate (DCFH-DA) staining.[24] […] Herein, cells were treated with complexes 4c and 4d with a concentration of 20 μM for 2, 6 and 10 h. We observed a higher level of […] fluorescence with the increase in the incubation time because of ROS generation (Fig. 6).
Fig. 7 Graphical representation of the average DCF fluorescence intensity in the T98G cell line upon treatment with cisplatin and complexes 4c and 4d. Incubation time: 2 h, 6 h and 10 h.
Brain cancer cells were stained with 2′,7′-dichlorofluorescein diacetate (DCFDA) to measure the reactive oxygen species (ROS) and subsequent oxidative stress generated from RAPTA complexes. They were restained by the […] fluorescence intensity generated from oxidized DCFDA. The cancer cells were cultured in a 24-well plate till 70% confluency and treatment was carried out with the aforesaid complex for 24 hours. The ROS generation mediated by the complex was evaluated using DCFDA-2′,7′-dichlorofluorescein diacetate (25 μM) staining for 30 min. The cells were washed with PBS, followed by fresh media replenishment. The images were captured under the EVOS M5000 fluorescent live cell imager (Thermo Fisher Scientific, USA).

LN229 = experiment: MTT cytotoxicity assay, LN229; assay type: cell-based, human; conditions: 72 h incubation
Procedure: (§1) The cytotoxic activity of prepared RAPTA complexes (4a–4h) was evaluated by following the standard procedure of the MTT experiment against a series of glioblastoma cells (LN 229, T98, U87MG) in triplicate. In order to accomplish this study, cells were maintained for 72 h with complexes of various concentrations ranging from 2–160 μM, taking cisplatin as a typical positive control.[22]
(§2) RAPTA complexes were dissolved in 1% DMSO, and 0.9% NaCl aqueous solution was used to dissolve cisplatin. A cell suspension was prepared and the number of cells taken was 2.5 × 10^4 mL^−1. The cells were seeded in 96-well plates (200 μL per well) and allowed 80% confluence prior to treatment. The cells were formerly treated with various concentrations (2.5–160 μM) of complex 4a–h while the control group was treated with PBS […]. After the 72 hours of incubation, 0.5% MTT solution was added to each well (20 μL) and further incubated for 4 hours at […]. The formazan crystals that were formed were dissolved in 150 μL DMSO and then the OD was measured by a microplate reader at 540 nm. The % growth inhibition of the control and treated cells were calculated and represented as the growth inhibition percentage as explained below.% growth inhibition = 100 − [(AD × 100)/AB]where AD is the absorbance measured in wells containing the treated and control samples and AB is the measured absorbance for the wells with media and a vehicle that served as the blank. IC50 was calculated using Graphpad Prism (version 6.0) where % cell viability was plotted against drug concentration.

T98 = experiment: MTT cytotoxicity assay, T98; assay type: cell-based, human; conditions: 72 h incubation
Procedure: as §1, §2

Ct-DNA = experiment: Viscosity measurement with Ct-DNA; assay type: binding, calf; conditions: with respect to EtBr
Procedure: The hydrodynamic study of the viscosity was conducted to screen the binding nature of the designated complexes 4c and 4d with Ct-DNA.
with respect to cisplatin.
UV–Visible, fluorescence spectroscopies and cyclic voltammetry, J. Photochem.
2. M. Shamsi-Sani, F. Hirini, SM. Abedini, M. Seddighi, Synthesis of benzimidazole
dipyridoquinoxaline and dipyridophenazine ligands as photosensitizing antennae:
curvature in Stern-Volmer plots, J. Am. Chem. Soc., 1983, 105, 1494–1498. (b) B.
hypoxia active, GSH-resistant cancer cytoselective and mitochondria-targeting
cancer stem cell therapeutic agents. Dalton Trans., 2022, 51, 5494-5514.
derivative with bovine serum albumin, J. Pharm. Anal., 2016, 6, 56–63.
6. K. Jeyalakshmi, J. Haribabu, C. Balachandran, S. Swaminathan, N. S. P.

VEGF = VEGF Elisa test; assay type: cell-based, human; conditions: U87MG and T98G, 1 to 20 μM
Excerpt: The vascular endothelial growth factor (VEGF), formerly known as the vascular permeability factor (VPF) is a signal protein produced by many cells, which stimulates blood vessel formation. In hypoxic conditions when blood circulation is insufficient in the cells, VEGF restores the oxygen supply to tissues.[26] Proper blood supply is required for solid tumour proliferation beyond a limited size; therefore, cancers that can express VEGF are able to grow and metastasize. Two cancer cells, i.e. U87MG and T98G were incubated with increased concentrations (1 to 20 μM) of 4c and 4d and the % of inhibition of VEGF was estimated by an ELISA reader.
The capture antibody was diluted to the working concentration in PBS without the carrier protein for coating the 96-well plate. The plate was sealed and incubated overnight at room temperature. It was then aspirated and washed three times with wash buffer and blocked by adding 300 μL of reagent diluent to each well and then incubating at room temperature for a minimum of 1 h. This aspiration was repeated again and then the plate was ready for sample addition.
The cells (U87MG and T98G) were treated for 48 h and the supernatants were collected; 100 μL of these samples were added per well and incubated for 2 h at room temperature. […] The optical density of each well was measured immediately by an Elisa reader (λexc = 450 nm).

Row | Compound | Conductivity (ΛM) 10% aq DMSO (Conductivity measurement) [S cm2 mol-1] | Conductivity (ΛM) DMSO (Conductivity measurement) [S cm2 mol-1] | average DCF fluorescence intensity (intracellular ROS) (T98G cell line) | IC50 (LN229) [nM] | IC50 (T98) [nM] | relative viscosity of Ct-DNA on increasing complex concentration (Ct-DNA) | VEGF concentration with the increase in complex concentration (VEGF)
1 | C1N2CN3CN1CP(C2)C3.Cc1ccc(C(C)C)cc1.Cc1ccnc2c1ccc1c(C)ccnc12.F[P-](F)(F)(F)(F)F.F[P-](F)(F)(F)(F)F.[Ru+2] [4c, [(η^6-p-Cymene)Ru^II(κ^2-N,N-4,7dimethylphenanthroline)(PTA)]·2PF6] | 78 | 76 | gradual increase with respect to the incubation time | 880 ± 20 | 970 ± 20 | abrupt increase in viscosity up to ri = 2 | constant decrease
2 | C1N2CN3CN1CP(C2)C3.Cc1ccc(C(C)C)cc1.F[P-](F)(F)(F)(F)F.F[P-](F)(F)(F)(F)F.[Ru+2].c1ccc(-c2ccnc3c2ccc2c(-c4ccccc4)ccnc23)cc1 [4d, [(η^6-p-Cymene)Ru^II(κ^2-N,N-4,7diphenylphenanthroline)(PTA)]·2PF6] | 77 | 74 | gradual increase with respect to the incubation time | 960 ± 20 | 940 ± 20 | steady escalation in the relative viscosity | constant decrease
